Test results published in BindingDB's records for doi:10.1016/s0024-3205(03)00272-8 (Merck Research Laboratories, 2003).

Experiments:
[1] = target: Metabotropic glutamate receptor 2 (Homo sapiens, UniProt Q14416)
[2] = target: Metabotropic glutamate receptor 1 (Rattus norvegicus, UniProt P23385)
[3] = target: T1, Retinoic acid receptor RXR-alpha (Rattus norvegicus, UniProt Q05343)
T1 sequence (Q05343 whole entry): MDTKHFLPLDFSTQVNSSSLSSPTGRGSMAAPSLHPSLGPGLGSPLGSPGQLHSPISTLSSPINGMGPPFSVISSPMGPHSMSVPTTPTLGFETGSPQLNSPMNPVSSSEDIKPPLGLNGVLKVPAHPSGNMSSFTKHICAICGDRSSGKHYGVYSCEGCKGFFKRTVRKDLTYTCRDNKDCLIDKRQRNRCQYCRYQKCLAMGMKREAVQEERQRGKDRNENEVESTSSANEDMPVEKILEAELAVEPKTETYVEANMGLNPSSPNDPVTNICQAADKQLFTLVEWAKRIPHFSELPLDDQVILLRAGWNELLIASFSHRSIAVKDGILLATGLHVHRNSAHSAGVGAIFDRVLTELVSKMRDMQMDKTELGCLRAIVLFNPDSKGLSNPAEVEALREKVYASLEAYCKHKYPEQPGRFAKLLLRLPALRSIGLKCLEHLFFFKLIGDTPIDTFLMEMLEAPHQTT

[4] = target: T2, Alpha-2C adrenergic receptor (Rattus norvegicus, UniProt P22086)
T2 sequence (P22086 whole entry): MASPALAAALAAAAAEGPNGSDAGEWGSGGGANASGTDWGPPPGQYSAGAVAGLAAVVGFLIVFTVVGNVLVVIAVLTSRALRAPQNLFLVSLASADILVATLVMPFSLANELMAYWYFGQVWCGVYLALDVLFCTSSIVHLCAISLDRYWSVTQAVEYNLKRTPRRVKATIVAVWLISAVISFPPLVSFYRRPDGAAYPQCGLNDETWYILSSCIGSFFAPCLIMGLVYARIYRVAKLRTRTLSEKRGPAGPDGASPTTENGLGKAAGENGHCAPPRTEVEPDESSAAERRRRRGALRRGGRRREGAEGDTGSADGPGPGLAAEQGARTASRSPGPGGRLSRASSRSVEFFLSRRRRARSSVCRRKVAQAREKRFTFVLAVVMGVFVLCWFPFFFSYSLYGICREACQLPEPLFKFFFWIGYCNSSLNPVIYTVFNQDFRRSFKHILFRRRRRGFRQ

Chain of Metabotropic glutamate receptor 1 (P23385 whole entry): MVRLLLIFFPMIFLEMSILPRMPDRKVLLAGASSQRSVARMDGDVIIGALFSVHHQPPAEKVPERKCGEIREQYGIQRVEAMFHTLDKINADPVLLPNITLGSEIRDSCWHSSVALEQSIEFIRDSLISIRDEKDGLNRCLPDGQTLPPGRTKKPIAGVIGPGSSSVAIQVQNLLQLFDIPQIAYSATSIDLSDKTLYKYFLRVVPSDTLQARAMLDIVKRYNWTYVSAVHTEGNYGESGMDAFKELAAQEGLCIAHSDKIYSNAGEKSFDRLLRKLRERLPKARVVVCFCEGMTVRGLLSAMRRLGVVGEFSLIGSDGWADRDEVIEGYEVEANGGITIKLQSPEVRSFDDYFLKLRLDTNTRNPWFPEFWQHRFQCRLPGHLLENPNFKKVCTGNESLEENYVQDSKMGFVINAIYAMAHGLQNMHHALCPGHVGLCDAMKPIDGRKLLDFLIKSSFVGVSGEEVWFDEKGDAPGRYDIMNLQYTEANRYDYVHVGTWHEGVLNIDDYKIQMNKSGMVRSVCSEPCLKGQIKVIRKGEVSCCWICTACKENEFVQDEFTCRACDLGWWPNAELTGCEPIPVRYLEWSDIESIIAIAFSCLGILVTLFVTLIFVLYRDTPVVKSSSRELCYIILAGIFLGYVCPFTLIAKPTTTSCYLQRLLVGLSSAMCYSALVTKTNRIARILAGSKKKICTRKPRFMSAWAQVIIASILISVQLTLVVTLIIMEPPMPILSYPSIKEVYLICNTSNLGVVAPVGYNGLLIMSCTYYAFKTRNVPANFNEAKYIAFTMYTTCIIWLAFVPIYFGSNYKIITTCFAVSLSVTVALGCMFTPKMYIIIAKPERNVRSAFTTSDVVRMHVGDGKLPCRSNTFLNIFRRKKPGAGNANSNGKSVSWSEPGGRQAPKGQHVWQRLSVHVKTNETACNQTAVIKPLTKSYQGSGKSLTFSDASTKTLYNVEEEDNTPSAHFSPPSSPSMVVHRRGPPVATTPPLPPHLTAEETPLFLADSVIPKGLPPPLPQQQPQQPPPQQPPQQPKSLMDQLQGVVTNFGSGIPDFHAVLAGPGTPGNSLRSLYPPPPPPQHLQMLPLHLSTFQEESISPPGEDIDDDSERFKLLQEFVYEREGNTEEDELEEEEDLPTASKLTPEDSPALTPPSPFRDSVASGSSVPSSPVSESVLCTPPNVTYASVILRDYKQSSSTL
Chain of Metabotropic glutamate receptor 2 (Q14416 whole entry): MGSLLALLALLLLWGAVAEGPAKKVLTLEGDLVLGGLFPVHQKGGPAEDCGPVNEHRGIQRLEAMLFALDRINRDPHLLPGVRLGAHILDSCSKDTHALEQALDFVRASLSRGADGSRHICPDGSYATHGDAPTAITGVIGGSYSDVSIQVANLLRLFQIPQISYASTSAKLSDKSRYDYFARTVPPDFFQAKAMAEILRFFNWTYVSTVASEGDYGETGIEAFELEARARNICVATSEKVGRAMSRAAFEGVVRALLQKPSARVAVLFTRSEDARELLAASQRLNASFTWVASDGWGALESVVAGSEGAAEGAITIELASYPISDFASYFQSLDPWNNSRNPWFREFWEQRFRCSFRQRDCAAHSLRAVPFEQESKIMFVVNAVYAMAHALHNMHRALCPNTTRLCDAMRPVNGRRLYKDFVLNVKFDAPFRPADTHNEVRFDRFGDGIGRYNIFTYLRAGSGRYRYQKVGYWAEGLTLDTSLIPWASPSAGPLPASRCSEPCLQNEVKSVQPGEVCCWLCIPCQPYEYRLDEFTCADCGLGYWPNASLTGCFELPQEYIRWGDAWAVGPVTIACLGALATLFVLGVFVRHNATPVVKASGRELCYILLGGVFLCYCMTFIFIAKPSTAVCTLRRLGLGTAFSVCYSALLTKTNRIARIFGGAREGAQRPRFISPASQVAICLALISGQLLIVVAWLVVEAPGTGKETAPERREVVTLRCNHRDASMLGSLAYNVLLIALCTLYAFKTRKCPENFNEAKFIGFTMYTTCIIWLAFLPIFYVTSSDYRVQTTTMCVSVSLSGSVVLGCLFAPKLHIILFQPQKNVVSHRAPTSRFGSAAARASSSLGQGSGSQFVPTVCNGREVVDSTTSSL

Q: How did the Ki [1] turn out when `NC1(C(=O)O)CCc2cc(C(=O)O)ccc21` (racemic) [AIDA] was run?
A: 1.1 µM

Q: How did the Ki [2] turn out when `NC(C(=O)O)c1ccc(C(=O)O)cc1` (centres undefined) [4-(Amino-carboxy-methyl)-benzoic acid] was run?
A: 1.1 µM

Q: How did the Ki [3] turn out when `CC12NC(Cc3ccccc31)c1ccccc12` (centres undefined) [CAS_180081] was run?
A: 7.6 µM

Q: `COc1cccc(OC)c1OCCNCC1CSc2ccccc2O1` (centres undefined) [NSC_2325] was tested. Which Ki [4] did it give?
A: 7.6 µM
